Measured values from patent US6914045B2, “Glycopeptide antibiotics” (Wyeth Holdings Corporation, priority 2001, dated 2005).

Columns and labels:
Test in all cases: in vitro antibacterial evaluation, MIC by broth dilution
Format in all cases: cell-based
Enterococcus sp. = conditions: broth dilution, 18 hours at 35° C.; for MIC Enterococcus faecalis (ATCC 29212): strain ATCC 29212; for MIC Enterococcus faecalis (GC 2242): strain GC 2242; for MIC Enterococcus faecium (GC 2243): strain GC 2243; for MIC Enterococcus faecalis (GC 2691): strain GC 2691; for MIC Enterococcus faecalis (GC 3059): strain GC 3059; for MIC Enterococcus faecalis (GC 4552): strain GC 4552; for MIC Enterococcus faecalis (GC 4553): strain GC 4553; for MIC Enterococcus faecalis (GC 4554): strain GC 4554; for MIC Enterococcus faecium (GC 4556): strain GC 4556; for MIC Enterococcus faecium (GC 4557): strain GC 4557; for MIC Enterococcus avium (GC 4558): strain GC 4558; for MIC Enterococcus faecalis (GC 6189): strain GC 6189
In short: (§1)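 Test organisms, which included recent clinical isolates resistant to methicillin, penicillin and/or vancomycin, were inoculated at 5×10^5 CFU/mL into Muller-Hinton II […] containing antibiotic at 64-0.06 μg/mL. Minimum inhibitory concentrations were then read as the lowest level inhibiting growth.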

Escherichia coli = system: Escherichia coli
In short: as §1

Staphylococcus sp. = conditions: broth dilution, 18 hours at 35° C.; for MIC Staphylococcus aureus (GC 1131): strain GC 1131
In short: as §1

Streptococcus sp. = conditions: broth dilution, 18 hours at 35° C.; for MIC Streptococcus pneumoniae (ATCC 6301): strain ATCC 6301; for MIC Streptococcus pneumoniae (GC 1894): strain GC 1894; for MIC Streptococcus pyogenes (GC 4563): strain GC 4563; for MIC Streptococcus agalactiae (GC 4564): strain GC 4564; for MIC Streptococcus pneumoniae (GC 4565): strain GC 4565
In short: as §1

CC(c1ccccc1)C1NC(=O)CNC(=O)C(CO)NC(=O)C(C(O)C2CNC(=N)N2C2OC(CO)C(O)C(O)C2O)NC(=O)C(C(O)C2CNC(=N)N2)NC(=O)C(Cc2ccc(OC3OC(CO)C(OC4OC5COC(c6ccc(C=Cc7ccccc7)cc6)OC5C(O)C4O)C(O)C3O)cc2)NC1=O (centres unmarked) [Example 172]
<0.06 µg/mL: MIC Streptococcus pneumoniae (ATCC 6301) (Streptococcus sp.; inoculum 5×10^5 CFU/mL) | MIC Streptococcus pneumoniae (GC 1894) (Streptococcus sp.; inoculum 5×10^5 CFU/mL) | MIC Streptococcus agalactiae (GC 4564) (Streptococcus sp.; inoculum 5×10^5 CFU/mL) | MIC Streptococcus pneumoniae (GC 4565) (Streptococcus sp.; inoculum 5×10^5 CFU/mL) | MIC Streptococcus pneumoniae (ATCC 6301) (Streptococcus sp.) | MIC Streptococcus pneumoniae (GC 1894) (Streptococcus sp.) | MIC Streptococcus agalactiae (GC 4564) (Streptococcus sp.) | MIC Streptococcus pneumoniae (GC 4565) (Streptococcus sp.)
4 µg/mL: MIC Enterococcus faecalis (GC 2242) (Enterococcus sp.; inoculum 5×10^5 CFU/mL) | MIC Enterococcus faecalis (GC 2691) (Enterococcus sp.; inoculum 5×10^5 CFU/mL) | MIC Enterococcus faecalis (GC 4553) (Enterococcus sp.; inoculum 5×10^5 CFU/mL) | MIC Enterococcus faecalis (GC 4554) (Enterococcus sp.; inoculum 5×10^5 CFU/mL) | MIC Enterococcus avium (GC 4558) (Enterococcus sp.; inoculum 5×10^5 CFU/mL) | MIC Enterococcus faecalis (GC 2242) (Enterococcus sp.) | MIC Enterococcus faecalis (GC 2691) (Enterococcus sp.) | MIC Enterococcus faecalis (GC 4553) (Enterococcus sp.) | MIC Enterococcus faecalis (GC 4554) (Enterococcus sp.) | MIC Enterococcus avium (GC 4558) (Enterococcus sp.) | MIC Staphylococcus aureus (ATCC 29213) (Staphylococcus sp.; strain ATCC 29213) | MIC Staphylococcus aureus (GC 3051) (Staphylococcus sp.; strain GC 3051) | MIC Staphylococcus aureus (GC 3053) (Staphylococcus sp.; strain GC 3053) | MIC Staphylococcus aureus (GC 4541) (Staphylococcus sp.; strain GC 4541) | MIC Staphylococcus aureus (GC 4545) (Staphylococcus sp.; strain GC 4545) | MIC Coagulase Negative Staphylococcus (GC 4551) (Staphylococcus sp.; strain GC 4551)
2 µg/mL: MIC Enterococcus faecalis (GC 6189) (Enterococcus sp.; inoculum 5×10^5 CFU/mL) | MIC Enterococcus faecalis (GC 6189) (Enterococcus sp.) | MIC Escherichia coli (GC 4560) (Escherichia coli; strain GC 4560, 18 hours at 35° C.) | MIC Staphylococcus aureus (GC 4542) (Staphylococcus sp.; strain GC 4542) | MIC Coagulase Negative Staphylococcus (GC 4548) (Staphylococcus sp.; strain GC 4548) | MIC Coagulase Negative Staphylococcus (GC 4549) (Staphylococcus sp.; strain GC 4549) | MIC Coagulase Negative Staphylococcus (GC 6257) (Staphylococcus sp.; strain GC 6257)
>64 µg/mL: MIC Escherichia coli (ATCC 25922) (Escherichia coli; strain ATCC 25922, 18 hours at 35° C.) | MIC Escherichia coli (GC 4559) (Escherichia coli; strain GC 4559, 18 hours at 35° C.)
8 µg/mL: MIC Enterococcus faecalis (ATCC 29212) (Enterococcus sp.; inoculum 5×10^5 CFU/mL) | MIC Enterococcus faecium (GC 2243) (Enterococcus sp.; inoculum 5×10^5 CFU/mL) | MIC Enterococcus faecalis (GC 3059) (Enterococcus sp.; inoculum 5×10^5 CFU/mL) | MIC Enterococcus faecalis (GC 4552) (Enterococcus sp.; inoculum 5×10^5 CFU/mL) | MIC Enterococcus faecium (GC 4556) (Enterococcus sp.; inoculum 5×10^5 CFU/mL) | MIC Enterococcus faecium (GC 4557) (Enterococcus sp.; inoculum 5×10^5 CFU/mL) | MIC Enterococcus faecalis (ATCC 29212) (Enterococcus sp.) | MIC Enterococcus faecium (GC 2243) (Enterococcus sp.) | MIC Enterococcus faecalis (GC 3059) (Enterococcus sp.) | MIC Enterococcus faecalis (GC 4552) (Enterococcus sp.) | MIC Enterococcus faecium (GC 4556) (Enterococcus sp.) | MIC Enterococcus faecium (GC 4557) (Enterococcus sp.) | MIC Staphylococcus aureus (GC 1131) (Staphylococcus sp.; inoculum 5×10^5 CFU/mL) | MIC Staphylococcus aureus (GC 1131) (Staphylococcus sp.) | MIC Staphylococcus aureus-SMITH (GC 4543) (Staphylococcus sp.; strain GC 4543) | MIC Staphylococcus aureus (GC 4544) (Staphylococcus sp.; strain GC 4544) | MIC Staphylococcus haemolyticus (GC 4546) (Staphylococcus sp.; strain GC 4546) | MIC Coagulase Negative Staphylococcus (GC 4547) (Staphylococcus sp.; strain GC 4547)
0.12 µg/mL: MIC Streptococcus pyogenes (GC 4563) (Streptococcus sp.; inoculum 5×10^5 CFU/mL) | MIC Streptococcus pyogenes (GC 4563) (Streptococcus sp.)
